In brackets after ≈: the same amount, converted by molar mass. Like-named read-outs stand apart in the source and are kept apart here. Marks after values point to notes of the source that are not given here.
Tests used:
[1] = system: Influenza A (H1N1) Texas/36/91; assay: microbe, parasite or virus in culture; format: cell-based, influenza A virus; conditions: Influenza A virus, read-out: CPE Inhibition EC50
[2] = system: Influenza A (H1N1) Texas/36/91; assay: microbe, parasite or virus in culture; format: cell-based, influenza A virus; conditions: Influenza A virus, read-out: Neutral Red EC50
[3] = system: Influenza A (H3N2) Beijing/32/92; assay: microbe, parasite or virus in culture; format: cell-based, influenza A virus; conditions: Influenza A virus, read-out: CPE Inhibition EC50
[4] = system: Influenza A (H3N2) Beijing/32/92; assay: microbe, parasite or virus in culture; format: cell-based, influenza A virus; conditions: Influenza A virus, read-out: Neutral Red EC50
Influenza B Panama/45/90 [5] = assay: microbe, parasite or virus in culture; format: cell-based; conditions: Influenza B virus, MDCK; Influenza B Panama/45/90; read-out: CPE Inhibition EC50
Influenza B Panama/45/90 [6] = assay: microbe, parasite or virus in culture; format: cell-based; conditions: Influenza B virus, MDCK, read-out: Neutral Red EC50
Measles Virus [7] = assay: microbe, parasite or virus in culture; format: cell-based; conditions: Measles morbillivirus
Measles Virus [8] = assay: Measles virus neutral red dye uptake in BSC-1 cells; format: cell-based; conditions: Measles morbillivirus, BSC-1
[9] = system: Parainfluenza Type 3 Virus; assay: organism not typed; format: cell-based
[10] = system: Parainfluenza Type 3 Virus; assay: organism not typed; format: cell-based; conditions: MA104, read-out: Neutral Red EC50
[11] = system: Respiratory Syncytial Virus; assay: microbe, parasite or virus in culture; format: cell-based
[12] = system: Respiratory Syncytial Virus; assay: microbe, parasite or virus in culture; format: cell-based; conditions: human respiratory syncytial virus, MA104; read-out: Neutral Red EC50
[13] = system: Influenza A (A/NWS/33 (H1N1)); assay: Influenza A virus infection in mice; format: in vivo, BALB/c mice
Method: Animals: Female 13-15 g specific pathogen-free BALB/c mice were obtained form Simonsen Laboratories (Gilroy, Calif.). They were quarantined 24 h prior to use, and maintained on Wayne Lab Blox and tap water. After being infected, their drinking water contained 0.006% oxytetracycline (Pfizer, New York, N.Y.) to control possible secondary bacterial infections.
Virus: A/NWS/33 (H1N1) was obtained from K. W. Cochran, Univ. of Michigan (Ann Arbor, Mich.). A virus pool was prepared in MDCK cells; this was titrated in mice, ampuled, and stored at −80° C. until used.
Compounds: Robustaflavone was stored at room temperature until used. Ribavirin, used as a positive control, was obtained from ICN Pharmaceuticals (Costa Mesa, Calif.). Vehicles considered included DMSO (Sigma Chemical Co., St. Louis, Mo.), DMF (Sigma), PEG M. W. 200 (Aldrich Chemical Co. Milwaukee, Wis.), 0.4% CMC (Sigma) and 1-methyl-2-pyrrolidinone (MPD, Aldrich).
Arterial Oxygen Saturation (SaO2) Determinations: SaO2 was determined using the Ohmeda Blox 3740 pulse oximeter (Ohmeda, Louisville, Ohio)). The ear probe attachment was used, the probe placed on the thigh of the animal, with the slow instrument mode selected. Readings were made after a 30 second stabilization time on each animal. Use of this device for measuring effects of influenza virus on arterial oxygen saturation have been described.^72
Lung Virus Determinations: Each mouse lung was homogenized and varying dilutions assayed in triplicate for infectious virus in MDCK cells as described previously.^73
4. Effect of robustaflavone in CMC or in DMSO on influenza virus infection in mice. In the study with CMC, robustaflavone was used in dosages of 200 and 100 mg/kg/day; using DMSO vehicle, the dosages were 75 and 37.5 mg/kg/day, with the compound administered i.p. twice daily for 5 days beginning 4 h pre-virus exposure. The mice were used in each dose to monitor effects on SaO2 and death; from an additional group of similarly infected and treated mice, 3 animals were killed on days 3, 5, 7 and 9 to assay for lung score (0=normal, 4=maximal consolidation), weight, and virus titer. Three to four mice were used as toxicity controls, which were weighed prior to treatment and again 18 h after treatment termination, and deaths noted daily. […] Three sets of virus controls were used: Infected-untreated, infected-treated with CMC only, and infected-treated with DMSO only. Twenty animals were used in each of these control groups to monitor SaO2 and death, with 3 additional mice taken in parallel with treated animals to determine effects on lung consolidation and virus titer. Two sets of normal controls were used; one group of three mice was weighed and held in parallel with the toxicity controls. From the second group three mice were killed on days 3 and 9 for comparison of lung score and weight.
Statistical Evaluation: Increase in survivor number was evaluated using chi square analysis with Yates' correction. Mean survival time increases, virus titer and SaO2 value differences were analyzed by t-test. Lung consolidation scores were evaluated by ranked sum analysis.

[14] = system: Madin Darby canine kidney (MDCK) cells
in vitro [15] = conditions: dog
in vitro [16] = conditions: African green monkey
in vitro [17] = conditions: African green monkey; remark: listed apart in the source
in vitro [18] = conditions: African green monkey; remark: listed apart in the source
HIV-1 RT = target: T1, HIV-1 RT (Human immunodeficiency virus type 1 group M subtype B, UniProt P03366); assay: Anti-HIV-1 RT assay (recombinant enzyme); format: biochemical; conditions: for inhibition at 200 µg/mL: read-out: Anti-HIV-1 RT % Inhibition at 200 μg/ml
T1 construct: made in house; host or cells: Escherichia coli

HIV-1 (strain LAV-1) = assay: microbe, parasite or virus in culture; format: cell-based; conditions: for EC50: Human immunodeficiency virus 1, PBMC, human PBM cells infected with HIV-1 (strain LAV), read-out: Ant-HIV-1 in PBM cells EC50
[19] = Cytotoxicity in uninfected PHA-stimulated human PBM cells; conditions: human
human PBM cells = assay: as above
Adenovirus Type 5 [20] = assay: microbe, parasite or virus in culture; format: cell-based; conditions: Human mastadenovirus C, A549, read-out: CPE Inhibition EC50
Adenovirus Type 5 [21] = assay: Adenovirus type 5 neutral red dye uptake in A549 cells; format: cell-based; conditions: Human mastadenovirus C, A549; Adenovirus Type 5; read-out: Neutral Red EC50
in vitro [22] = conditions: dog, Neutral Red IC50 (cytotoxic)
in vitro [23] = conditions: human
in vitro [24] = conditions: African green monkey, Neutral Red IC50 (cytotoxic)
in vitro [25] = conditions: human; remark: listed apart in the source
in vitro [26] = conditions: human; remark: listed apart in the source
HCMV = HCMV CPE inhibition in HFF cells
HSV-1 = HSV-1 CPE inhibition in HFF cells
HSV-2 = HSV-2 CPE inhibition in HFF cells
VZV = VZV plaque reduction assay in HFF cells
[27] = Cytotoxicity by neutral red dye uptake, A549 cells; conditions: human, A549 cells (toxicity control wells)
[28] = Cytotoxicity by neutral red dye uptake, MA-104 cells; conditions: African green monkey, MA-104 cells (toxicity control wells), Neutral Red IC50 (cytotoxic), Respiratory Syncytial Virus test
Hepatitis B Virus (HBV) = assay: Inhibition of HBV replication in 2.2.15 cells, extracellular (virion) HBV DNA; conditions: Hepatitis B virus, 216 h;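 note: extracellular virion HBV DNA in culture medium measured by slot blot hybridization with a 32P-labeled HBV probe, quantified against HBV DNA standards, after 9 days of daily dosing, compared with day 0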
[29] = ribavirin in saline, 75 mg/kg/day i.p. bid × 5
[30] = CPE Inhibition IC50 (cytotoxic)
[31] = Anti-HIV-1 RT IC50, values in parentheses or in words
[32] = HIV-1 RT IC50 (50% inhibition dose)
[33] = MDCK, Influenza A (H1N1) Texas/36/91
[34] = MDCK, Influenza A (H3N2) Beijing/32/92

## NC(=O)c1ncn([C@@H]2O[C@H](CO)[C@@H](O)[C@H]2O)n1 [Ribavirin, ribavirin, reference compound]
[1]; H1N1, MDCK
  EC50: 1.9 µg/mL (≈ 7.78 µM)
[2]; H1N1, MDCK
  EC50: 1.4 µg/mL (≈ 5.73 µM)
[3]; H3N2, MDCK
  EC50: 4.1 µg/mL (≈ 16.8 µM)
[4]; H3N2, MDCK
  EC50: 5.7 µg/mL (≈ 23.3 µM)
Influenza B Panama/45/90 [5]
  EC50: 1.5 µg/mL (≈ 6.14 µM)
Influenza B Panama/45/90 [6]
  EC50: 0.48 µg/mL (≈ 1.97 µM)
Measles Virus [7]; BSC-1, read-out: CPI Inhibition EC50
  EC50: 3 µg/mL (≈ 12.3 µM)
Measles Virus [8]
  EC50: 1 µg/mL (≈ 4.09 µM)
[9]; MA104, read-out: CPI Inhibition EC50
  EC50: 25 µg/mL (≈ 102 µM)
[10]
  EC50: 17 µg/mL (≈ 69.6 µM)
[11]; human respiratory syncytial virus, MA104, read-out: CPE Inhibition EC50
  EC50: 12 µg/mL (≈ 49.1 µM)
[12]
  EC50: 6 µg/mL (≈ 24.6 µM)
[13]; ribavirin 75 mg/kg/day, positive control
  inhibition of the infection, in words: highly active
[13]; [29]
  Infected, Treated MST: >21.0** days
  Infected, Treated Mean SaO2: 87.1** %
  Infected, Treated Surv/Total: 10/10**
[14]; dog
  CPE Inhibition IC50 (cytotoxic): >1000 µg/mL
In vitro [15]; CPE Inhibition IC50 (50% cell inhibitory (cytotoxic) concentration)
  IC50: 562 µg/mL (≈ 2300 µM)
In vitro [15]; [30]
  IC50: 562 µg/mL (≈ 2300 µM)
In vitro [16]
  IC50: 150 µg/mL (≈ 614 µM)
In vitro [17]
  IC50: 150 µg/mL (≈ 614 µM)
In vitro [18]; [30]
  IC50: 120 µg/mL (≈ 491 µM)
In vitro [18]; CPI Inhibition IC50 (cytotoxic)
  IC50: 245 µg/mL (≈ 1000 µM)

## O=C1CC(c2ccc(O)cc2)Oc2c1c(O)cc(O)c2C1C(=O)c2c(O)cc(O)cc2OC1c1ccc(O)cc1 (stereo not shown) [GB-1a(13), GB-1a]
HIV-1 RT; [31]
  IC50: 236 µM
HIV-1 RT; [32]
  IC50: 236 µM
HIV-1 RT
  inhibition at 200 µg/mL: 86%
HIV-1 (strain LAV-1)
  anti-HIV-1 activity in PBM cells (in words): good activity
  EC50: 38 µM
HIV-1 (strain LAV-1); PBM cells
  Selective Index (SI): 2.3
[19]
  IC50: 88 µM
Human PBM cells
  toxicity against uninfected PHA-stimulated human PBM cells (in words): high toxicity

## O=c1cc(-c2ccc(O)c(-c3c(O)cc(O)c4c(=O)cc(-c5ccc(O)cc5)oc34)c2)oc2cc(O)cc(O)c12 [Amentoflavone (1), amentoflavone]
[1]; [33]
  EC50: 3.1 µg/mL (≈ 5.76 µM)
[2]; [33]
  EC50: 5.3 µg/mL (≈ 9.84 µM)
[3]; [34]
  EC50: 4.3 µg/mL (≈ 7.99 µM)
[4]; [34]
  EC50: 6.5 µg/mL (≈ 12.1 µM)
Influenza B Panama/45/90 [5]
  EC50: 0.56 µg/mL (≈ 1.04 µM)
Measles Virus [7]; BSC-1, Measles Virus, read-out: CPI Inhibition EC50
  EC50: < 40 µg/mL
Measles Virus [8]
  EC50: < 20 µg/mL
Adenovirus Type 5 [20]
  EC50: > 100 µg/mL
Adenovirus Type 5 [21]
  EC50: > 100 µg/mL
[9]; MA104, Parainfluenza Type 3 Virus, read-out: CPI Inhibition EC50
  EC50: > 100 µg/mL
[10]
  EC50: ~32 µg/mL (≈ 59.4 µM)
[11]; human respiratory syncytial virus, MA104; read-out: CPE Inhibition EC50
  EC50: ~10 µg/mL (≈ 18.6 µM)
[12]
  EC50: ~21 µg/mL (≈ 39 µM)
HIV-1 RT; [31]
  IC50: 119 µM
HIV-1 RT; [32]
  IC50: 119 µM
HIV-1 RT
  inhibition at 200 µg/mL: 97.3%
HIV-1 (strain LAV-1)
  EC50: > 10.9 µM
[14]; Influenza A (H3N2) test
  CPE Inhibition IC50 (cytotoxic): >100 µg/mL
In vitro [15]; CPE Inhibition IC50 (50% cell inhibitory (cytotoxic) concentration), Influenza A (H1N1) test
  IC50: 22 µg/mL (≈ 40.9 µM)
In vitro [15]; CPE Inhibition IC50 (cytotoxic), Influenza A (H3N2) test
  IC50: > 100 µg/mL
In vitro [15]; CPE Inhibition IC50 (cytotoxic), Influenza B test
  IC50: 100 µg/mL (≈ 186 µM)
In vitro [22]; Influenza A (H1N1) test
  IC50: > 100 µg/mL
In vitro [22]; Influenza A (H3N2) test
  IC50: > 100 µg/mL
In vitro [23]
  IC50: 18 µg/mL (≈ 33.4 µM)
In vitro [24]
  IC50: ~56 µg/mL (≈ 104 µM)
In vitro [25]
  IC50: 35 µM
In vitro [26]; HCMV CPE Inhibition CC50
  CC50 at 14 days: > 100 µg/mL
In vitro [26]; HSV-1 CPE Inhibition CC50
  CC50 at 3 days: > 100 µg/mL
In vitro [26]; HSV-2 CPE Inhibition CC50
  CC50 at 3 days: > 100 µg/mL
In vitro [26]; VZV Plaque Reduction CC50
  CC50 at 10 days: 9.3 µg/mL (≈ 17.3 µM)
HCMV; HFF Cells
  HCMV SI (CC50/EC50): >1.9
HCMV; Human betaherpesvirus 5, HFF, read-out: HCMV CPE Inhibition EC50
  EC50: 50.8 µg/mL (≈ 94.3 µM)
HSV-1; HFF Cells
  HSV-1 SI (CC50/EC50): >5.6
HSV-1; Human alphaherpesvirus 1, HFF, read-out: HSV-1 CPE Inhibition EC50
  EC50: 17.9 µg/mL (≈ 33.2 µM)
HSV-2; HFF Cells
  HSV-2 SI (CC50/EC50): >2.1
HSV-2; Human alphaherpesvirus 2, HFF, read-out: HSV-2 CPE Inhibition EC50
  EC50: 48 µg/mL (≈ 89.1 µM)
VZV; HFF Cells
  VZV SI (CC50/EC50): <2.3
VZV; Human alphaherpesvirus 3, HFF, read-out: VZV Plaque Reduction EC50
  EC50: > 4 µg/mL
[27]
  IC50: 74 µg/mL (≈ 137 µM)
[28]
  IC50: ~35 µg/mL (≈ 65 µM)
Hepatitis B Virus (HBV); read-out: EC50 (50% effective dose), HBV Virion, 2.2.15 cells, extracellular (virion) HBV DNA, 9 days treatment
  EC50: > 100 µM
Hepatitis B Virus (HBV); read-out: EC90 (90% effective dose), HBV Virion, 2.2.15 cells, extracellular (virion) HBV DNA, 9 days treatment
  EC90: > 100 µM

Reference: patent US6399654B1, “Biflavanoids and derivatives thereof as antiviral agents” (priority 1995, dated 2002)
